Data from EPA's ToxValDB 9.5 (doi:10.2903/j.efsa.2008.118r).
In brackets after ≈: the same amount, converted by molar mass.

What was measured:
Colinus virginianus = conditions: reproduction developmental
Oncorhynchus mykiss = conditions: acute; duration: 96 hours; mortality
Typhlodromus pyri = conditions: acute
Apis mellifera = conditions: acute; duration: 48 hours; oral; unspecified; mortality
Daphnia magna = conditions: chronic/long-term; duration: 21 days; reproduction
Canidae = conditions: chronic; duration: 1 years; oral; M/F; Dog Other; histopathology: nonneoplastic
Tagia sp. = conditions: acute; duration: 14 days; mortality
Coturnix japonica = conditions: acute, oral, mortality

## c1coc(-c2nc3ccccc3[nH]2)c1 [Fuberidazole]
Colinus virginianus
  NOEC: > 76.9 mg/kg-day
Oncorhynchus mykiss
  LC50: 0.91 µg/mL (≈ 4.94 µM)
Typhlodromus pyri; duration: 7 days, mortality
  LEL: 26 g/ha
Typhlodromus pyri; duration: 14 days, reproduction
  LEL: 26 g/ha
Apis mellifera
  LD50: > 187 µg/piece
Rattus norvegicus; acute, mortality
  LD50: > 300 mg/kg
Rattus norvegicus; developmental, development
  NOAEL: 8 mg/kg-day
Rattus norvegicus; reproduction developmental, mortality
  NOAEL: 4 mg/kg-day
Daphnia magna
  NOEC: 0.12 mg/L
Canidae
  NOAEL: 0.72 mg/kg-day
Tagia sp.
  LC50: > 1000 mg/kg
Coturnix japonica; diet
  LC50: > 930 mg/kg-day
Coturnix japonica
  LD50: > 750 mg/kg
